Measured values reported in PMC4689404, “2-Benzazolyl-4-Piperazin-1-Ylsulfonylbenzenecarbohydroxamic Acids as Novel Selective Histone Deacetylase-6 Inhibitors with Antiproliferative Activity” (PLoS ONE, 2015).

What was measured:
UACC-257 = test: NCI 60 screen, five dose; format: cell-based; conditions: Homo sapiens, Melanoma, GI50 = molar concentration, read-out: Log10 GI50 (converted)
SNB-19 = test: NCI 60 screen, five dose; format: cell-based; conditions: Homo sapiens, CNS Cancer, GI50 = molar concentration, read-out: Log10 GI50 (converted)
NCI-H23 = test: NCI 60 screen, five dose; format: cell-based; conditions: Homo sapiens, Non-Small Cell Lung Cancer, GI50 = molar concentration, read-out: Log10 GI50 (converted)
HL-60(TB) = test: NCI 60 screen, five dose; format: cell-based; conditions: Homo sapiens, Leukemia, GI50 = molar concentration, read-out: Log10 GI50 (converted)
CCRF-CEM = test: NCI 60 screen, five dose; format: cell-based; conditions: Homo sapiens, Leukemia, GI50 = molar concentration, read-out: Log10 GI50 (converted)
DU-145 = test: NCI 60 screen, five dose; format: cell-based; conditions: Homo sapiens, Prostate Cancer, GI50 = molar concentration, read-out: Log10 GI50 (converted)
SF-539 = test: NCI 60 screen, five dose; format: cell-based; conditions: Homo sapiens, CNS Cancer, GI50 = molar concentration, read-out: Log10 GI50 (converted)
Breast cancer cell lines = test: NCI 60 screen, five dose; format: cell-based, human; conditions: for GI50: Homo sapiens; for no. cell lines used for the assay/no inhibited by compound: figures in parenthesis
HCT-15 = test: NCI 60 screen, five dose; format: cell-based; conditions: Homo sapiens, Colon Cancer, GI50 = molar concentration, read-out: Log10 GI50 (converted)
K-562 = test: NCI 60 screen, five dose; format: cell-based; conditions: Homo sapiens, K562, Leukemia, GI50 = molar concentration, read-out: Log10 GI50 (converted)
A498 = test: NCI 60 screen, five dose; format: cell-based; conditions: Homo sapiens, Renal Cancer, GI50 = molar concentration, read-out: Log10 GI50 (converted)
HOP-92 = test: NCI 60 screen, five dose; format: cell-based; conditions: Homo sapiens, Non-Small Cell Lung Cancer, GI50 = molar concentration, read-out: Log10 GI50 (converted)
[1] = tested on: HCC4017 lung cancer cells; test: cell cycle analysis (PI, FACS); format: cell-based, human
Description: (§1) For cell cycle analysis, cells were washed with PBS, fixed in 70% ethanol for 2 h, washed with PBS and resuspended in staining solution (0.1% Triton X-100, 0.2 mg/ml DNAse-free RNAse A and […]) and incubated at 37C for 15 min. Histograms were acquired on a BD FACSCalibur flow cytometer at UT Southwestern’s core facility. Apoptosis was measured using a FITC Annexin V Apoptosis Detection Kit I (BD Pharmingen) according to manufacturer’s protocol after treating cells with compounds as indicated in Figure legends.

MDA-MB-435 = test: NCI 60 screen, five dose; format: cell-based; conditions: Homo sapiens, Melanoma, GI50 = molar concentration, read-out: Log10 GI50 (converted)
[2] = tested on: Non-Small Cell Lung cancer cell lines; test: NCI 60 screen, five dose; format: cell-based, human; conditions: NSCL cancer; for GI50: Homo sapiens; for no. cell lines used for the assay/no inhibited by compound: figures in parenthesis
A549/ATCC = test: NCI 60 screen, five dose; format: cell-based; conditions: Homo sapiens, Non-Small Cell Lung Cancer, GI50 = molar concentration, read-out: Log10 GI50 (converted)
CNS cancer cell lines = test: NCI 60 screen, five dose; format: cell-based, human; conditions: for GI50: Homo sapiens; for no. cell lines used for the assay/no inhibited by compound: figures in parenthesis
BT-549 = test: NCI 60 screen, five dose; format: cell-based; conditions: Homo sapiens, Breast Cancer, GI50 = molar concentration, read-out: Log10 GI50 (converted)
ACHN = test: NCI 60 screen, five dose; format: cell-based; conditions: Homo sapiens, Renal Cancer, GI50 = molar concentration, read-out: Log10 GI50 (converted)
MDA-MB-468 = test: NCI 60 screen, five dose; format: cell-based; conditions: Homo sapiens, Breast Cancer, GI50 = molar concentration, read-out: Log10 GI50 (converted)
HCC4017 cells = test: Annexin V apoptosis assay; format: cell-based, human; conditions: 18h, 40h, 64h
Description: as §1

Renal Cancer cell lines = test: NCI 60 screen, five dose; format: cell-based, human; conditions: for GI50: Homo sapiens; for no. cell lines used for the assay/no inhibited by compound: figures in parenthesis
T-47D = test: NCI 60 screen, five dose; format: cell-based; conditions: Homo sapiens, T47D, Breast Cancer, GI50 = molar concentration, read-out: Log10 GI50 (converted)
HCT-116 = test: NCI 60 screen, five dose; format: cell-based; conditions: Homo sapiens, Colon Cancer, GI50 = molar concentration, read-out: Log10 GI50 (converted)
MCF7 = test: NCI 60 screen, five dose; format: cell-based; conditions: Homo sapiens, Breast Cancer, GI50 = molar concentration, read-out: Log10 GI50 (converted)
RPMI-8226 = test: NCI 60 screen, five dose; format: cell-based; conditions: Homo sapiens, Leukemia, GI50 = molar concentration, read-out: Log10 GI50 (converted)
MALME-3M = test: NCI 60 screen, five dose; format: cell-based; conditions: Homo sapiens, Melanoma, GI50 = molar concentration, read-out: Log10 GI50 (converted)
SW-620 = test: NCI 60 screen, five dose; format: cell-based; conditions: Homo sapiens, Colon Cancer, GI50 = molar concentration, read-out: Log10 GI50 (converted)
IGROV1 = test: NCI 60 screen, five dose; format: cell-based; conditions: Homo sapiens, IGROV-1, Ovarian Cancer, GI50 = molar concentration, read-out: Log10 GI50 (converted)
Colon cancer cell lines = test: NCI 60 screen, five dose; format: cell-based, human; conditions: for GI50: Homo sapiens; for no. cell lines used for the assay/no inhibited by compound: figures in parenthesis
EKVX = test: NCI 60 screen, five dose; format: cell-based; conditions: Homo sapiens, Non-Small Cell Lung Cancer, GI50 = molar concentration, read-out: Log10 GI50 (converted)
SF-268 = test: NCI 60 screen, five dose; format: cell-based; conditions: Homo sapiens, CNS Cancer, GI50 = molar concentration, read-out: Log10 GI50 (converted)
NCI-H460 = test: NCI 60 screen, five dose; format: cell-based; conditions: Homo sapiens, Non-Small Cell Lung Cancer, GI50 = molar concentration, read-out: Log10 GI50 (converted)
SK-MEL-5 = test: NCI 60 screen, five dose; format: cell-based; conditions: Homo sapiens, Melanoma, GI50 = molar concentration, read-out: Log10 GI50 (converted)
NCI-H522 = test: NCI 60 screen, five dose; format: cell-based; conditions: Homo sapiens, Non-Small Cell Lung Cancer, GI50 = molar concentration, read-out: Log10 GI50 (converted)
SR = test: NCI 60 screen, five dose; format: cell-based; conditions: Homo sapiens, Leukemia, GI50 = molar concentration, read-out: Log10 GI50 (converted)
HS 578T = test: NCI 60 screen, five dose; format: cell-based; conditions: Homo sapiens, Breast Cancer, GI50 = molar concentration, read-out: Log10 GI50 (converted)
OVCAR-3 = test: NCI 60 screen, five dose; format: cell-based; conditions: Homo sapiens, Ovarian Cancer, GI50 = molar concentration, read-out: Log10 GI50 (converted)
HT29 = test: NCI 60 screen, five dose; format: cell-based; conditions: Homo sapiens, HT-29, Colon Cancer, GI50 = molar concentration, read-out: Log10 GI50 (converted)
MOLT-4 = test: NCI 60 screen, five dose; format: cell-based; conditions: Homo sapiens, Leukemia, GI50 = molar concentration, read-out: Log10 GI50 (converted)

In the case of `O=C(NO)c1ccc(S(=O)(=O)N2CCN(c3nc4ccccc4o3)CC2)cc1` [Compound 9c, 4-(4-Benzoxazol-2-yl-piperazin-1-sulfonyl)-N -hydroxy-benzamid], the GI50 (UACC-257) is reported as 6.46 µM, the GI50 (SNB-19) is reported as 10 µM and the GI50 (NCI-H23) is reported as 3.72 µM. The GI50 (HL-60(TB)) was 5.89 µM, the GI50 (CCRF-CEM) was 1.78 µM and the GI50 (DU-145) was 7.41 µM. For the same molecule, the GI50 (SF-539) was 3.72 µM, the GI50 (Breast cancer cell lines) was 8.71 µM and the “no. cell lines used for the assay/no inhibited by compound” value (Breast cancer cell lines) was 2/7. The GI50 (HCT-15) was 18.2 µM, the GI50 (K-562) was 6.31 µM and the GI50 (A498) was 2.82 µM. The GI50 (HOP-92) was 6.03 µM, the “effect on cell cycle distribution” value ([1]; HCC4017, FACs analysis) was “affect cell cycle distribution after just 18h of treatment” and the “subG0 population” value ([1]; HCC4017, even after 64h) was “no subG0 population was observed”. The GI50 (MDA-MB-435) was 3.63 µM, the GI50 [2] was 9.51 µM and the “no. cell lines used for the assay/no inhibited by compound” value [2] was 3/9. The GI50 (A549/ATCC) was 13.5 µM, the GI50 (CNS cancer cell lines) was 5.82 µM and the “no. cell lines used for the assay/no inhibited by compound” value (CNS cancer cell lines) was 4/6. It also gave a GI50 (BT-549) of 12 µM, a GI50 (ACHN) of 21.4 µM and a GI50 (MDA-MB-468) of 11 µM. For the same molecule, the “Annexin V staining, percent of dead cells” value (HCC4017 cells) was “did not show any reproducible significant changes”, the GI50 (Renal Cancer cell lines) was 8.24 µM and the “no. cell lines used for the assay/no inhibited by compound” value (Renal Cancer cell lines) was 3/8. For the same molecule, the GI50 (T-47D) was 5.75 µM, the GI50 (HCT-116) was 4.07 µM and the GI50 (MCF7) was 3.8 µM. For the same molecule, the GI50 (RPMI-8226) was 0.38 µM, the GI50 (MALME-3M) was 1.38 µM and the GI50 (SW-620) was 4.37 µM. The GI50 (IGROV1) was 11 µM, the GI50 (Colon cancer cell lines) was 6.05 µM and the “no. cell lines used for the assay/no inhibited by compound” value (Colon cancer cell lines) was 4/6. For the same molecule, the GI50 (EKVX) was 8.91 µM, the GI50 (SF-268) was 12 µM and the GI50 (NCI-H460) was 10.7 µM. It also gave a GI50 (SK-MEL-5) of 5.62 µM and a GI50 (NCI-H522) of 6.03 µM.

`O=C(NO)c1ccc(S(=O)(=O)N2CCN(c3nc4ccccc4s3)CC2)cc1` [Compound 9d, 4-(4-Benzothiazol-2-yl-piperazin-1-sulfonyl)-N -hydroxy-benzamid] showed a GI50 (UACC-257) of 3.55 µM, a GI50 (SR) of 1.12 µM and a GI50 (SNB-19) of 5.37 µM. For the same molecule, the GI50 (NCI-H23) was 1.55 µM, the GI50 (HL-60(TB)) was 2.57 µM and the GI50 (CCRF-CEM) was 1.82 µM. It also gave a GI50 (DU-145) of 3.02 µM, a GI50 (SF-539) of 2.34 µM and a GI50 (Breast cancer cell lines) of 3.88 µM. For the same molecule, the “no. cell lines used for the assay/no inhibited by compound” value (Breast cancer cell lines) was 4/7, the GI50 (HCT-15) was 3.98 µM and the GI50 (A498) was 1.82 µM. It also gave a GI50 (HOP-92) of 2.57 µM, a GI50 (MDA-MB-435) of 1.86 µM and a GI50 (HS 578T) of 1.45 µM. For the same molecule, the GI50 [2] was 3.77 µM, the “no. cell lines used for the assay/no inhibited by compound” value [2] was 4/9 and the GI50 (A549/ATCC) was 3.63 µM. For the same molecule, the GI50 (CNS cancer cell lines) was 2.77 µM, the “no. cell lines used for the assay/no inhibited by compound” value (CNS cancer cell lines) was 4/6 and the GI50 (BT-549) was 2.4 µM. For the same molecule, the GI50 (ACHN) was 4.57 µM, the GI50 (Renal Cancer cell lines) was 3.94 µM and the “no. cell lines used for the assay/no inhibited by compound” value (Renal Cancer cell lines) was 3/8. It also gave a GI50 (T-47D) of 3.89 µM, a GI50 (OVCAR-3) of 3.02 µM and a GI50 (HCT-116) of 1.7 µM. For the same molecule, the GI50 (MCF7) was 15.8 µM, the GI50 (RPMI-8226) was 1.38 µM and the GI50 (MALME-3M) was 2.57 µM. The GI50 (SW-620) was 1.66 µM, the GI50 (IGROV1) was 3.55 µM and the GI50 (Colon cancer cell lines) was 2.3 µM. The “no. cell lines used for the assay/no inhibited by compound” value (Colon cancer cell lines) was 6/7, the GI50 (EKVX) was 4.37 µM and the GI50 (SF-268) was 3.98 µM. For the same molecule, the GI50 (HT29) was 5.62 µM, the GI50 (NCI-H460) was 5.13 µM and the GI50 (SK-MEL-5) was 3.98 µM. The GI50 (MOLT-4) was 3.02 µM and the GI50 (NCI-H522) was 2.29 µM.
